From PMC8151276, “An Integrated Approach toward NanoBRET Tracers for Analysis of GPCR Ligand Engagement” (Molecules, 2021)

Assays:
Assay type in all cases: binding
MTNR1B = molecular target: T1, MTNR1B (Homo sapiens, UniProt P49286); assay: NanoBRET screen HiBiT-MTNR1B in HEK293; conditions: MTNR1B
T1 construct: purchased Promega (in-house HiBiT-GPCR construct library, NanoBRET)
T1 sequence (P49286 1-362): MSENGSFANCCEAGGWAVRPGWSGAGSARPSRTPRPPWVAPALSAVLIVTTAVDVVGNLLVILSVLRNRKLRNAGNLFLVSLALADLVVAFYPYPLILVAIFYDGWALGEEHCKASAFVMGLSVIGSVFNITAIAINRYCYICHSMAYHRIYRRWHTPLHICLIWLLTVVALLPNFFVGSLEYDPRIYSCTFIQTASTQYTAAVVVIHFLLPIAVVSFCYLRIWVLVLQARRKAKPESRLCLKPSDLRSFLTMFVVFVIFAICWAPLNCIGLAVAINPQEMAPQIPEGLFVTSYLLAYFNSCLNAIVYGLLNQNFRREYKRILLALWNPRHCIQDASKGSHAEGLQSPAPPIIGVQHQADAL
Protocol: (§1) Each tracer candidate was screened across the entire library of HiBiT-GPCR constructs using NanoBRET as the detection modality. As depicted in Figure 4A, the specificity of interactions was evaluated through decrease in BRET due to competitive displacement of a bound tracer by excess parental compound. Each tracer was analyzed for binding to each HiBiT-GPCR fusion in the absence and in the presence of competing parental compound. Briefly, HEK293 cells were transfected with HiBiT-GPCR constructs diluted into promoterless DNA to reduce expression and maximize translocation to the cell surface. Each tracer candidate was then screened at concentrations of 1 μM and 0.1 μM across cells expressing these fusions. Cells were treated for 1.5 h with tracer either alone or in the presence of 20 μM competing parental compound (i.e., control). BRET was measured upon addition of purified LgBiT and subsequent complementation with HiBiT genetically fused to a GPCR. The specificity of interactions was assessed through a decrease in BRET signal due to competitive displacement of the bound tracer. To further gauge the robustness of these interactions, the fold response over the control (i.e., BRETtracer/BRETcontrol) was calculated. We chose a 1.5-fold response, which translates to ≥7-fold signal over noise as the minimal threshold required to score an interaction as positive. […]. Below we highlight the screening results obtained for our exemplary fluorescent tracers based on Clozapine, Amitriptyline and AZD1283.
(§2) HiBiT-GPCR DNA constructs were diluted in 10 mM Tris pH 8 to a final concentration of 0.01 μg/μL, arrayed in 96-well plates and stored at −20 °C. For transfection, HEK293 cells were suspended in Opti-MEM (without phenol red) supplemented with 2% fetal bovine serum (Seradigm) and 100 units/mL penicillin–streptomycin (Gibco) at a final concentration of 220,000 cells/mL and dispensed into white 96-well plates at 90 μL/well. Subsequent transfections and screens were carried using an Agilent Bravo Automated Liquid Handling Platform. First, the 96-well HiBiT DNA arrays were diluted 25-fold in Opti-MEM (without serum or phenol red) to a final concentration of 0.0004 μg/μL and 20 μL of the diluted DNAs were transferred into new 96-well plates. Next, promoterless carrier DNA (1 μg/μL) was diluted 25-fold (0.04 μg/μL) and then dispensed into the diluted arrays at 20 μL/well. Following brief mixing, Viafect transfection reagent (Promega) diluted 16-fold into Opti-MEM was dispensed into the plates at 40 μL/well. After mixing by pipetting, plates were incubated for 10 min on the pipetting station deck. The DNA-transfection reagent complexes were then added to plates containing cells. To facilitate the screen, 10 μL of DNA-transfection reagent complexes were added in duplicates to the top 4 and bottom 4 rows, resulting in two identical 48-well arrays per plate. Plates with transfected cells were incubated for 18–20 h at 37 °C/5% CO2. A screen of each tracer across the entire library using two different concentrations requires duplicate plates of transfected cells. Depending on the number of tracers being screened, transfections can be scaled up using the same ratios. The next day, for each tracer, four 20× screening solutions in tracer dilution buffer (Promega) were prepared: two duplicates at final concentration of 20 μM and two duplicates at a final concentration of 2 μM. A competing unmodified compound was added to one of each duplicate at a final concentration of 400 μM. The four resulting solutions were diluted 4-fold in Opti-MEM without serum or phenol red to generate 5× solutions (5 µM and 0.5 µM tracer +/− 100 μM competing compound). To screen the library, a BioTek MultiFlo FX liquid dispenser was used to dispense 22.5 µL of tracer solution to the top 4 rows and 22.5 µL tracer + competing compound solution to the 4 bottom rows. Plates were briefly mixed on an orbital shaker and incubated for 1.5 h at room temperature. […]

HCRTR2 = molecular target: T2, HCRTR2 (Homo sapiens, UniProt O43614); assay: NanoBRET screen HiBiT-HCRTR2 in HEK293; conditions: HCRTR2
T2 construct: purchased Promega (in-house HiBiT-GPCR construct library, NanoBRET)
T2 sequence (O43614 1-444): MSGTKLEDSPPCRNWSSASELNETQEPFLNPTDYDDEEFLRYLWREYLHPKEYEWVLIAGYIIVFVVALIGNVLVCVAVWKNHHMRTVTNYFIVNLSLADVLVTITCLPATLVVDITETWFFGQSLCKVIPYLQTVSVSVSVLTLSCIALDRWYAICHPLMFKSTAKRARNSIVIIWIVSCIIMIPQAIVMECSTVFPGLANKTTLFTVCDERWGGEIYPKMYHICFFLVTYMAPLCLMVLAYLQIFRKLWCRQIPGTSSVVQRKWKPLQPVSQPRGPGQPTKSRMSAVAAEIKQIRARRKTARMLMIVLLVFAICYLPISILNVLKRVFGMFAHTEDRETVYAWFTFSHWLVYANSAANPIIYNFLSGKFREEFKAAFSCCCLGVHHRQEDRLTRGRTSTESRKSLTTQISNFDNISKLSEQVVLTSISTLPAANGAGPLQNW
Protocol: as §1, §2

ADORA2B = molecular target: T3, ADORA2B (Homo sapiens, UniProt P29275); assay: NanoBRET screen HiBiT-ADORA2B in HEK293; conditions: ADORA2B
T3 construct: purchased Promega (in-house HiBiT-GPCR construct library, NanoBRET)
T3 sequence (P29275 1-332): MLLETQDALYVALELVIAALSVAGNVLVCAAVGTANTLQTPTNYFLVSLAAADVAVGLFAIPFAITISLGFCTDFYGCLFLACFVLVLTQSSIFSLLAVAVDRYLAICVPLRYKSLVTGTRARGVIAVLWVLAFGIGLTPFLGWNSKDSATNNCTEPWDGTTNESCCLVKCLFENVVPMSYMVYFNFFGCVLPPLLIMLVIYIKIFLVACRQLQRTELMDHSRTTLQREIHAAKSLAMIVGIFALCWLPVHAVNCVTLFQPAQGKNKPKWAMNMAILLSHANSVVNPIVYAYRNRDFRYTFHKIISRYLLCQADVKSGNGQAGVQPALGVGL
Protocol: as §1, §2

Structure (SMILES)	NanoBRET Fold Response (MTNR1B; tracer 0.1μM)	NanoBRET Fold Response (MTNR1B; tracer 1μM)	NanoBRET Fold Response (HCRTR2; tracer 0.1μM)	NanoBRET Fold Response (HCRTR2; tracer 1μM)	NanoBRET Fold Response (ADORA2B; tracer 0.1μM)	NanoBRET Fold Response (ADORA2B; tracer 1μM)	NanoBRET Fold Response (MTNR1B; 0.1μM)	NanoBRET Fold Response (MTNR1B; 1μM)	NanoBRET Fold Response (HCRTR2; 0.1μM)	NanoBRET Fold Response (HCRTR2; 1μM)	NanoBRET Fold Response (ADORA2B; 0.1μM)	NanoBRET Fold Response (ADORA2B; 1μM)
Cc1cc2c(s1)Nc1ccccc1N=C2N1CCN(CCCNC(=O)CCOCCOCCOCCOCCNC(=O)CCc2ccc3n2[B-](F)(F)[N+]2=C(c4ccc[nH]4)C=CC2=C3)CC1 [Olanzapine-a-2-NB590]	0.96	0.94	0.95	0.97	0.92	1.04						
O=C(CCc1ccc2n1[B-](F)(F)[N+]1=C(c3ccc[nH]3)C=CC1=C2)NCc1ccc(C(=O)NCCOCCOCCNCC(O)COc2cccc3ccccc23)cc1 (stereo not drawn) [Propranolol-3-NB590]							0.96	0.98	1.09	1.00	1.10	0.95
O=C(CCc1ccc2n1[B-](F)(F)[N+]1=C(c3ccc[nH]3)C=CC1=C2)NCCOCCOCCNC(=O)OCCOCCN1CCN(C2=Nc3ccccc3Sc3ccccc32)CC1 [Quetiapine-a-2-NB590]	1.11	0.92	1.01	0.84	0.80	1.02						
Cc1nc2n(c(=O)c1CCN1CCC(c3noc4cc(F)ccc34)CC1)CCCC2OC(=O)NCCOCCOCCOCCOCCNC(=O)CCc1ccc2n1[B-](F)(F)[N+]1=C(c3ccc[nH]3)C=CC1=C2 (stereo not drawn) [Risperidone-2-NB590]	0.99	0.92	0.98	0.96	0.94	1.05						
CC(C)N(CC[C@H](c1ccccc1)c1cc(CCNC(=O)CCOCCOCCOCCOCCNC(=O)CCc2ccc3n2[B-](F)(F)[N+]2=C(c4ccc[nH]4)C=CC2=C3)ccc1O)C(C)C [Tolterodine-2-NB590]	0.95	0.79	1.04	1.00	0.81	0.97						
CC(C)N(CC[C@H](c1ccccc1)c1cc(CCNC(=O)c2ccc(CNC(=O)CCc3ccc4n3[B-](F)(F)[N+]3=C(c5ccc[nH]5)C=CC3=C4)cc2)ccc1O)C(C)C [Tolterodine-BZ-NB590]	0.97	1.04	0.91	1.06	0.67	0.73						
CCCn1c(=O)c2[nH]c(-c3ccc(OCC(=O)NCCNC(=O)CCOCCNC(=O)c4ccc(CNC(=O)CCc5ccc6n5[B-](F)(F)[N+]5=C(c7ccc[nH]7)C=CC5=C6)cc4)cc3)nc2n(CCC)c1=O [XAC-3-NB590]	1.07	1.05	1.06	0.97	8.09	3.98						
